# Experimental data published in PubChem BioAssay AID212 (DTP/NCI, 2004).
# Values joined by “and” are separate entries in the source; they are usually repeats but may differ in a detail not shown here. Identical values can stand only once. Records with an inconclusive call do not appear.
# Tested on: BDF1 mice, colon carcinoma 38 sc, T/C %
# Assay: NCI In Vivo Anticancer Drug Screen. Data for tumor model Colon Carcinoma 38 (subcutaneous) in B6D2F1 (BDF1) mice
# Outline: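 Ratio of survival or tumor size, compound-treated animals relative to vehicle controls, in tumor-bearing mice.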
# [1] = endpoint: median tumor weight (est.), dose: 50.0 mg/kg/injection, schedule: Q07DX002 (ip), vehicle: Klucel (hydroxypropylcellulose) (HPC), higher = larger tumour
# [2] = endpoint: median tumor weight (est.), dose: 100.0 mg/kg/injection, schedule: Q07DX002 (ip), vehicle: Klucel (hydroxypropylcellulose) (HPC), higher = larger tumour
# [3] = endpoint: median tumor weight (est.), dose: 400.0 mg/kg/injection, schedule: Q07DX002 (ip), vehicle: Klucel (hydroxypropylcellulose) (HPC), higher = larger tumour
# [4] = endpoint: median tumor weight (est.), dose: 12.5 mg/kg/injection, schedule: Q07DX002 (ip), vehicle: saline with Tween-80, higher = larger tumour
# [5] = endpoint: median tumor weight (est.), dose: 25.0 mg/kg/injection, schedule: Q07DX002 (ip), vehicle: saline with Tween-80, higher = larger tumour
# [6] = endpoint: median tumor weight (est.), dose: 100.0 mg/kg/injection, schedule: Q07DX002 (ip), vehicle: saline with Tween-80, higher = larger tumour
# [7] = endpoint: median tumor weight (est.), dose: 200.0 mg/kg/injection, schedule: Q07DX002 (ip), vehicle: saline with Tween-80, higher = larger tumour
# [8] = endpoint: median tumor weight (est.), dose: 100.0 mg/kg/injection, schedule: Q07DX002 (ip), vehicle: saline, higher = larger tumour
# [9] = endpoint: median tumor weight (est.), dose: 200.0 mg/kg/injection, schedule: Q07DX002 (ip), vehicle: saline, higher = larger tumour
smiles,measurement,setting,value
NC1CCCCC1N.O=S(=O)([O-])CCCNC1CCCCC1.O=S(=O)([O-])CCCNC1CCCCC1.[Pt+4],T/C,"endpoint: median tumor weight (est.), dose: 0.78 mg/kg/injection, schedule: Q07DX002 (ip), vehicle: saline, higher = larger tumour",50 % of control
same,T/C,"endpoint: median tumor weight (est.), dose: 1.56 mg/kg/injection, schedule: Q07DX002 (ip), vehicle: saline, higher = larger tumour",38 % of control
same,T/C,"endpoint: median tumor weight (est.), dose: 3.12 mg/kg/injection, schedule: Q07DX002 (ip), vehicle: saline, higher = larger tumour",62 % of control
same,T/C,"endpoint: median tumor weight (est.), dose: 6.25 mg/kg/injection, schedule: Q07DX002 (ip), vehicle: saline, higher = larger tumour",25 % of control and 47 % of control
same,T/C,"endpoint: median tumor weight (est.), dose: 12.5 mg/kg/injection, schedule: Q07DX002 (ip), vehicle: saline, higher = larger tumour",14 % of control
O=S(=O)(SC(S(=O)(=O)c1ccccc1)S(=O)(=O)c1ccccc1)c1ccccc1,T/C,"endpoint: median tumor weight (est.), dose: 25.0 mg/kg/injection, schedule: Q07DX002 (ip), vehicle: Klucel (hydroxypropylcellulose) (HPC), higher = larger tumour",174 % of control
same,T/C,[1],199 % of control
same,T/C,[2],113 % of control
same,T/C,[3],115 % of control
CC(=O)[C@]1(O)Cc2c(O)c3c(c(O)c2[C@@H](OC2CC(N)C(O)C(C)O2)C1)C(=O)c1c(O)cccc1C3=O (some centres not stated),T/C,"endpoint: median survival time, dose: 0.7 mg/kg/injection, schedule: Q07DX003 (iv), vehicle: water, higher = longer survival",87 % of control
same,T/C,"endpoint: median survival time, dose: 1.7 mg/kg/injection, schedule: Q07DX003 (iv), vehicle: water, higher = longer survival",107 % of control
same,T/C,"endpoint: median survival time, dose: 2.7 mg/kg/injection, schedule: Q07DX003 (iv), vehicle: water, higher = longer survival",176 % of control
Cc1ccc(S(=O)(=O)NC(=S)S)cc1,T/C,[4],108 % of control
same,T/C,[5],54 % of control
same,T/C,"endpoint: median tumor weight (est.), dose: 50.0 mg/kg/injection, schedule: Q07DX002 (ip), vehicle: saline with Tween-80, higher = larger tumour",116 % of control
same,T/C,[6],100 % of control
same,T/C,[7],60 % of control
O=C(O)Cc1cccc2c(=O)cc(-c3ccc4ccccc4c3)oc12,T/C,[8],104 % of control
same,T/C,[9],59 % of control
O=C(NP(=O)(N1CC1)N1CC1)c1cc(I)ccc1I,T/C,"endpoint: median tumor weight (est.), dose: 8.0 mg/kg/injection, schedule: Q07DX002 (ip), vehicle: Klucel (hydroxypropylcellulose) (HPC), higher = larger tumour",105 % of control
same,T/C,"endpoint: median tumor weight (est.), dose: 16.0 mg/kg/injection, schedule: Q07DX002 (ip), vehicle: Klucel (hydroxypropylcellulose) (HPC), higher = larger tumour",47 % of control
same,T/C,"endpoint: median tumor weight (est.), dose: 32.0 mg/kg/injection, schedule: Q07DX002 (ip), vehicle: Klucel (hydroxypropylcellulose) (HPC), higher = larger tumour",92 % of control
same,T/C,"endpoint: median tumor weight (est.), dose: 64.0 mg/kg/injection, schedule: Q07DX002 (ip), vehicle: Klucel (hydroxypropylcellulose) (HPC), higher = larger tumour",55 % of control
same,T/C,"endpoint: median tumor weight (est.), dose: 128.0 mg/kg/injection, schedule: Q07DX002 (ip), vehicle: Klucel (hydroxypropylcellulose) (HPC), higher = larger tumour",22 % of control
same,T/C,"endpoint: median tumor weight (est.), dose: 256.0 mg/kg/injection, schedule: Q07DX002 (ip), vehicle: Klucel (hydroxypropylcellulose) (HPC), higher = larger tumour",31 % of control
CC1C=NNC1=O (configuration not stated),T/C,[1],84 % of control
same,T/C,[2],91 % of control and 96 % of control
same,T/C,"endpoint: median tumor weight (est.), dose: 200.0 mg/kg/injection, schedule: Q07DX002 (ip), vehicle: Klucel (hydroxypropylcellulose) (HPC), higher = larger tumour",97 % of control and 98 % of control
same,T/C,[3],76 % of control
C[Si](C)(C)O/C=C1/CCOC1=O,T/C,"endpoint: median tumor weight (est.), dose: 25.0 mg/kg/injection, schedule: Q07DX002 (ip), vehicle: saline, higher = larger tumour",84 % of control
same,T/C,"endpoint: median tumor weight (est.), dose: 50.0 mg/kg/injection, schedule: Q07DX002 (ip), vehicle: saline, higher = larger tumour",86 % of control
same,T/C,[8],84 % of control
same,T/C,[9],95 % of control
same,T/C,"endpoint: median tumor weight (est.), dose: 400.0 mg/kg/injection, schedule: Q07DX002 (ip), vehicle: saline, higher = larger tumour",105 % of control
same,T/C,"endpoint: median tumor weight (est.), dose: 800.0 mg/kg/injection, schedule: Q07DX002 (ip), vehicle: saline, higher = larger tumour",78 % of control
CN(C)c1ccc(C(=C2C=CC(=[N+](C)C)C=C2)c2ccc(N(C)C)cc2)cc1 (tested in a mixture with another compound),T/C,"endpoint: median tumor weight (est.), dose: 0.62 mg/kg/injection, schedule: Q07DX002 (ip), vehicle: saline with Tween-80, higher = larger tumour",61 % of control
same,T/C,"endpoint: median tumor weight (est.), dose: 2.5 mg/kg/injection, schedule: Q07DX002 (ip), vehicle: saline with Tween-80, higher = larger tumour",71 % of control
Cc1ccc(Cl)c2ccccc12,T/C,[4],96 % of control and 102 % of control
same,T/C,[5],92 % of control
same,T/C,[6],89 % of control and 96 % of control
same,T/C,[7],88 % of control and 96 % of control
same,T/C,"endpoint: median tumor weight (est.), dose: 400.0 mg/kg/injection, schedule: Q07DX002 (ip), vehicle: saline with Tween-80, higher = larger tumour",87 % of control
